Results as given in US20170291890A1 (Epizyme, Inc., priority 2014, published 2017).
Read-outs that look alike come from different tables or passages of the source.

Target: T1, KDM4A (Homo sapiens, UniProt O75164)
T1 construct: N-terminal His-tagged KDM4A^1-350 was purchased from BPS Biosciences; His (N); purchased BPS Biosciences
T1 sequence (O75164 1-350): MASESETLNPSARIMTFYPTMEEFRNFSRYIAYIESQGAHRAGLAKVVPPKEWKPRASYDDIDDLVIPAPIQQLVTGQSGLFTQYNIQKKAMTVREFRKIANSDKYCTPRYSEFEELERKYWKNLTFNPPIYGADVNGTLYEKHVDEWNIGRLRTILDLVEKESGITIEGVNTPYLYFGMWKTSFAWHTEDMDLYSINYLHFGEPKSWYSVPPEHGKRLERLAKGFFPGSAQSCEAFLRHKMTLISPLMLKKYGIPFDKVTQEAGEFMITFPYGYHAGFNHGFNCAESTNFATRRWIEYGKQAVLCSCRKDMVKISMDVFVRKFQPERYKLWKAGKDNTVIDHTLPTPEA
Experiment: KDM4A Assay (SAMDI mass spectrometry demethylase assay)
Assay type: biochemical
Conditions: N-terminal His-tagged KDM4A 1-350, read-out: 4A IC50
In short: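 His-tagged KDM4A 1-350 (5 nM final) was preincubated 30 min with compound (10 μM final for screening) in 50 mM HEPES pH 8.0 with ascorbate, 10 μM Fe(II) and TCEP. Biotinylated Kme2 peptide (600 nM) and 2-oxoglutarate (5 μM) reacted 120 min at 25°C before a formic acid stop. SAMDI-MS % conversion from substrate and product peak areas; IC50 from dose-response.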

IC50 (class symbols) [nM] | IC50 (numeric value) [nM] | SMILES
100 to 1000 | – | Cn1nc(Nc2cnccc2C(=O)O)cc1-c1ccccc1 [Compound 5]
10000 to 100000 | – | COC(=O)c1ccncc1Nc1cnn(C2CCN(C3CCC3)CC2)c1C [Compound 95, methyl 3-((1-(1-cyclobutylpiperidin-4-yl)-5-methyl-1H-pyrazol-4-yl)amino)isonicotinate]
1 to 100 | – | CCc1c(Nc2cnccc2C(=O)O)cnn1-c1ccccc1 [Compound 81, 3-((5-ethyl-1-phenyl-1H-pyrazol-4-yl)amino)isonicotinic acid]
10000 to 100000 | – | NC1CCC(n2nc(Nc3cnccc3C(=O)O)cc2-c2cccc(Cl)c2)CC1 (centres unmarked) [Compound 87, 3-((1-(4-aminocyclohexyl)-5-(3-chlorophenyl)-1H-pyrazol-3-yl)amino)isonicotinic acid]
100 to 1000 | – | O=C(O)c1ccncc1Nc1cc(-c2cccc(Cl)c2)n(C2CCC3(CC2)OCCO3)n1 [Compound 86, 3-((5-(3-chlorophenyl)-1-(1,4-dioxaspiro[4.5]decan-8-yl)-1H-pyrazol-3-yl)amino)isonicotinic acid]
100 to 1000 | – | Cc1nn([C@H]2CC[C@@H](N)CC2)cc1Nc1cnccc1C(=O)O [Compound 80, 3-((1-((cis)-4-aminocyclohexyl)-3-methyl-1H-pyrazol-4-yl)amino)isonicotinic acid]
100 to 1000 | – | Cc1c(Nc2cnccc2C(=O)O)cnn1C1CCN(C2CN(C)C2)CC1 [Compound 92, 3-(5-methyl-1-(1-(1-methylazetidin-3-yl)piperidin-4-yl)-1H-pyrazol-4-ylamino)isonicotinic acid]
1 to 100 | – | Cc1nn(C2CCN(CC3CC3)CC2)cc1Nc1cnccc1C(=O)O [Compound 89, 3-(1-(1-(cyclopropylmethyl)piperidin-4-yl)-3-methyl-1H-pyrazol-4-ylamino)isonicotinic acid]
1 to 100 | – | Cc1ccc(-n2cc(Nc3cnccc3C(=O)O)c(C)n2)cc1 [Compound 82]
– | 1490 | CN1CCC(n2ncc(Nc3cnccc3C(=O)O)c2-c2ccccc2)CC1 [Compound 126, 3-(1-(1-methylpiperidin-4-yl)-5-phenyl-1H-pyrazol-4-ylamino) isonicotinic acid]
100 to 1000 | – | O=C(O)c1ccncc1Nc1nn(-c2ccccc2)cc1-c1ccncc1 [Compound 88, 3-((1-phenyl-4-(pyridin-4-yl)-1H-pyrazol-3-yl)amino) isonicotinic acid]
100 to 1000 | – | Cc1c(Nc2cnccc2C(=O)O)cnn1C1CCN(CC2CC2)CC1 [Compound 90, 3-(1-(1-(cyclopropylmethyl)piperidin-4-yl)-5-methyl-1H-pyrazol-4-ylamino) isonicotinic acid]
1 to 100 | – | Cc1nn(C2CCN(C3CCC3)CC2)cc1Nc1cnccc1C(=O)O [Compound 94, 3-(1-(1-cyclobutylpiperidin-4-yl)-3-methyl-1H-pyrazol-4-ylamino)isonicotinic acid]
1000 to 10000 | – | NC1CCC(n2nc(-c3cccc(Cl)c3)cc2Nc2cnccc2C(=O)O)CC1 (centres unmarked) [Compound 85, 3-((1-(4-aminocyclohexyl)-3-(3-chlorophenyl)-1H-pyrazol-5-yl)amino)isonicotinic acid]
100 to 1000 | – | Cc1nn(C2CCN(C3CN(C)C3)CC2)cc1Nc1cnccc1C(=O)O [Compound 91, 3-(3-methyl-1-(1-(1-methylazetidin-3-yl)piperidin-4-yl)-1H-pyrazol-4-ylamino)isonicotinic acid]
10000 to 100000 | – | COC(=O)c1ccncc1Nc1cn(C2CCN(C3CCC3)CC2)nc1C [Compound 93, methyl 3-((1-(1-cyclobutylpiperidin-4-yl)-3-methyl-1H-pyrazol-4-yl)amino)isonicotinate]
1000 to 10000 | – | Cn1ncc(-c2cccnc2)c1Nc1cnccc1C(=O)O [Compound 4]
